Source: ChEMBL document CHEMBL4706775, “Discovery of Arylsulfonamide Na1.7 Inhibitors: IVIVC, MPO Methods, and Optimization of Selectivity Profile” (ACS Med Chem Lett, 2021)
pIC50: −log10 of the molar value.

Tests used:
[1] = biological target: Sodium channel protein type 8 subunit alpha (Homo sapiens, UniProt Q9UQD0); assay: Inhibition of human Nav1.6 alpha expressed in HEK293 cells incubated for 5 mins with 6 consecutive train pulses to -10 mV at 0.1 Hz and holding potential of -65 mV by Qube-automated patch clamp assay; format: ADME, cell-based
Chain of Sodium channel protein type 8 subunit alpha (Q9UQD0 whole entry): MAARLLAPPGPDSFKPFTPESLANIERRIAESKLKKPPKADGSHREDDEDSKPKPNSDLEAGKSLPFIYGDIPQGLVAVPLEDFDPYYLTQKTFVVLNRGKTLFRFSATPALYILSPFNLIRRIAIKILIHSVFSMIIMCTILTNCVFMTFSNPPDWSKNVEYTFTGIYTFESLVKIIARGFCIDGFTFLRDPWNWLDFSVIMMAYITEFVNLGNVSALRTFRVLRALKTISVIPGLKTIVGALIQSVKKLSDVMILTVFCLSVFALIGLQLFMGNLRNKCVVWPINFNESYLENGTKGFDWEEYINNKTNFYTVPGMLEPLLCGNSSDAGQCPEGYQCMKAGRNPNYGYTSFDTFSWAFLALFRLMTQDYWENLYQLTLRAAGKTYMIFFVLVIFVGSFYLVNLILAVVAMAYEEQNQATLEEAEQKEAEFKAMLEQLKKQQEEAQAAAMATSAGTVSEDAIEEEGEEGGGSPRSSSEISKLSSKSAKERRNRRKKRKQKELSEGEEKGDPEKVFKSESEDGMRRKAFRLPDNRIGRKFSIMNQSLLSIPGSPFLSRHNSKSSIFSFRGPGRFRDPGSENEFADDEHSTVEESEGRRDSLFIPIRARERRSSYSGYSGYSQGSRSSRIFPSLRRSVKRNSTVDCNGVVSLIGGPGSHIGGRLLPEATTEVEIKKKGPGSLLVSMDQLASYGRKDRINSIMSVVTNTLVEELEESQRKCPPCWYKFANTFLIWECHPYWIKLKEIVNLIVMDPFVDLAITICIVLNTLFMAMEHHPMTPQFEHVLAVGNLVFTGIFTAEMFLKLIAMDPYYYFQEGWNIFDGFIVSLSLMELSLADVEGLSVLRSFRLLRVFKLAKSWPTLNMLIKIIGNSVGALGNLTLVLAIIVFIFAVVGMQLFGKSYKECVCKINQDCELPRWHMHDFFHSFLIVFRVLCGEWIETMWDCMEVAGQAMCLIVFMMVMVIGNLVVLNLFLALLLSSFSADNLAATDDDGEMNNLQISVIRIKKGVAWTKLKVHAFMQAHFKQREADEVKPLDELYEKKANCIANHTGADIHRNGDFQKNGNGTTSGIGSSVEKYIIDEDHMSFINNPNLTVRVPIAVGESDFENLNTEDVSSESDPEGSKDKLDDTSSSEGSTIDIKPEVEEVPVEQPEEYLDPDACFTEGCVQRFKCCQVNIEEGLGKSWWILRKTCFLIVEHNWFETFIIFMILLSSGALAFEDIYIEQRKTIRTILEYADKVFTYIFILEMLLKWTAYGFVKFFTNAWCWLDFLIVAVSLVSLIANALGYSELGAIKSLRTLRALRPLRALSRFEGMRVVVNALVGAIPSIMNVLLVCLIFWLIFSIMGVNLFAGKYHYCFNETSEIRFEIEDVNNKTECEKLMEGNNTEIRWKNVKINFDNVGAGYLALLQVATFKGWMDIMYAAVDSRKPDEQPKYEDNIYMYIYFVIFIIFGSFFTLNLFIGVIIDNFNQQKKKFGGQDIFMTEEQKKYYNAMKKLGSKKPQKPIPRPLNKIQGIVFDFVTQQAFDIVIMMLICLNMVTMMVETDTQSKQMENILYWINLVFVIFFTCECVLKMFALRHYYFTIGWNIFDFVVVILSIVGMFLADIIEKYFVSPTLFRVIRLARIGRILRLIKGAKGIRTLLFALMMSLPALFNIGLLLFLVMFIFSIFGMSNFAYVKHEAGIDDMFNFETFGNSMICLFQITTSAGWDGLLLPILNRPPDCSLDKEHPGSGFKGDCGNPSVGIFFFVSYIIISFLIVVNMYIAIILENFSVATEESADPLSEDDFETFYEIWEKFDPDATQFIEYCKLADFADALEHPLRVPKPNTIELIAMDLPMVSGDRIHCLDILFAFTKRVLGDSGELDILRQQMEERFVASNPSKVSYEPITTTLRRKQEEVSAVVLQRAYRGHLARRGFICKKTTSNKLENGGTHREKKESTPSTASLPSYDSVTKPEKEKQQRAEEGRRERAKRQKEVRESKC

[2] = biological target: Sodium channel protein type 9 subunit alpha (Homo sapiens, UniProt Q15858); assay: Inhibition of human Nav1.7 alpha expressed in HEK293 cells incubated for 5 mins with 6 consecutive train pulses to -10 mV at 0.1 Hz and holding potential of -65 mV by Qube-automated patch clamp assay; format: cell-based
Chain of Sodium channel protein type 9 subunit alpha (Q15858 whole entry): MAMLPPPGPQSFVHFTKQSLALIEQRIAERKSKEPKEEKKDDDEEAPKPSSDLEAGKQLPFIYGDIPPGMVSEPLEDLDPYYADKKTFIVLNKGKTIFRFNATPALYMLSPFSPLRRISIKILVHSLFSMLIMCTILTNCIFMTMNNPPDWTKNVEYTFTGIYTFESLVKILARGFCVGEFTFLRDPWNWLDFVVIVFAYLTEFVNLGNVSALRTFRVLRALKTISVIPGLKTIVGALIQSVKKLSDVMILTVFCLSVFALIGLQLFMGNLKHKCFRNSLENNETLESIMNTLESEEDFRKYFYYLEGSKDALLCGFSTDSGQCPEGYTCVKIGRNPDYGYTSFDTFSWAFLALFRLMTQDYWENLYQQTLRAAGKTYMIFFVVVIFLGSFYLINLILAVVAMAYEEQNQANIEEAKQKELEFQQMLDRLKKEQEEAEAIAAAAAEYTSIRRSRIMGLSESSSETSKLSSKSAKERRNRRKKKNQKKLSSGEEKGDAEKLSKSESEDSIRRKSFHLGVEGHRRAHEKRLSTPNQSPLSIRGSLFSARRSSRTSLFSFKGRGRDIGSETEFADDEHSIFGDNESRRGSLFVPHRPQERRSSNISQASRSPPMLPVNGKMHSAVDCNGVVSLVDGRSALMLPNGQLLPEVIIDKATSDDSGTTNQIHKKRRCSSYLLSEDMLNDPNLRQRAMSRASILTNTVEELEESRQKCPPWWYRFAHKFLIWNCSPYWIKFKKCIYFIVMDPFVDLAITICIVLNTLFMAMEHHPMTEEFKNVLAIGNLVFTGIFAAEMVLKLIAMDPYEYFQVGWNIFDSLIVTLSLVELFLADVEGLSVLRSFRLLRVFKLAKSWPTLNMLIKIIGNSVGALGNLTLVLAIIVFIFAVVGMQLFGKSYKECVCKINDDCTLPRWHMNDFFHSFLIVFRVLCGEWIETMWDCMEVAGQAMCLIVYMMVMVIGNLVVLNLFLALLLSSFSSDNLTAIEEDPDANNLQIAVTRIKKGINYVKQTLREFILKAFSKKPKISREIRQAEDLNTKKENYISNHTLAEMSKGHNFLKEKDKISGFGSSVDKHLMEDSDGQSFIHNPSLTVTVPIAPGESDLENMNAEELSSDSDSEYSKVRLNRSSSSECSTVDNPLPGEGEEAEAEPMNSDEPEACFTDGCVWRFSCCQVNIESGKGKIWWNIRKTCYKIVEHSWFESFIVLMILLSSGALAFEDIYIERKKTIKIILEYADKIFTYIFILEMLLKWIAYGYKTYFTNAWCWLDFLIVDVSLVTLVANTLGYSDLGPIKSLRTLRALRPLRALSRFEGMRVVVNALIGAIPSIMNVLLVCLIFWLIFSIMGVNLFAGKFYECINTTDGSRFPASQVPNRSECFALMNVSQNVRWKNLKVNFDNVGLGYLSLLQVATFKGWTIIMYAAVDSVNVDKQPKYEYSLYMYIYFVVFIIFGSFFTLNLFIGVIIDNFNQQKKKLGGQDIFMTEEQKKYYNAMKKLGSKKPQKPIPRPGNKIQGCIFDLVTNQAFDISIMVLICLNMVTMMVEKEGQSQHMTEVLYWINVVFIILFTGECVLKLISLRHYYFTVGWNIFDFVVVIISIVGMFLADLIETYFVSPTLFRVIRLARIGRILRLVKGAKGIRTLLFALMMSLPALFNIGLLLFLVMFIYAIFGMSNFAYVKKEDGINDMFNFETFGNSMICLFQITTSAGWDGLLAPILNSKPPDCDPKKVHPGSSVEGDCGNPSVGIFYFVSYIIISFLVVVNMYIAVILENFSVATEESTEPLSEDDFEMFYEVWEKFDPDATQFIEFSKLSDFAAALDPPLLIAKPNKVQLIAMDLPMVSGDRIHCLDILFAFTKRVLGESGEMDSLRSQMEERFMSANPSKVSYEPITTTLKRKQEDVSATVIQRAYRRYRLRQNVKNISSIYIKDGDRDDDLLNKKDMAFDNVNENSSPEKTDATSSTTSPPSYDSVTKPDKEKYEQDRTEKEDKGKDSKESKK

[3] = Apparent permeability in MDCK cells by Monolayer assay; format: ADME, cell-based, Canis lupus familiaris; details: dog
[4] = Intrinsic clearance in rat at 0.05 mg/kg, iv administered as cassette dose or 2 mg/kg, iv administered as single dose; details: in vivo

pIC50 [1] | pIC50 [2] | Papp [3] [×10⁻⁶ cm/s] | CL [4] [mL/min/kg] | Compound | pIC50 ([1]; hek293) | pIC50 ([2]; hek293)
< 4.47 | 5.26 | 3 | 380 | CN[C@H](CNc1cc(F)c(S(=O)(=O)Nc2ncc(F)s2)cc1Cl)CC1CC1 |  | 
< 4.47 | 6.14 | 7 | 830 | CN[C@H](CNc1cc(F)c(S(=O)(=O)Nc2ncc(F)s2)cc1Cl)CC1(C)CC1 |  | 
< 4.47 | 6.62 | 10 | 4820 | CN[C@H](CNc1cc(F)c(S(=O)(=O)Nc2nccs2)cc1Cl)Cc1ccccc1 |  | 
 | 5.94 |  |  | CNC(C)(CNc1cc(F)c(S(=O)(=O)Nc2nccs2)cc1Cl)Cc1ccccc1 (stereo in doubt; 10) | < 4.47 | 
< 4.47 | < 4.47 |  |  | CNC(C)(CNc1cc(F)c(S(=O)(=O)Nc2nccs2)cc1Cl)Cc1ccccc1 (stereo in doubt; 9) |  | 

The next lines start with the compound.

Compound | pIC50 [1] | pIC50 [2] | Papp [3] [×10⁻⁶ cm/s] | CL [4] [mL/min/kg] | pIC50 ([1]; hek293) | pIC50 ([2]; hek293)
N[C@H](CNc1cc(F)c(S(=O)(=O)Nc2nccs2)cc1Cl)Cc1ccccc1 | < 4.47 | < 4.47 |  |  |  | 
CN[C@H](CNc1cc(F)c(S(=O)(=O)Nc2ncc(F)s2)cc1Cl)C[Si](C)(C)C | 5.50 | 7.36 |  | 500 |  | 
O=S(=O)(Nc1nccs1)c1cc(Cl)c(NCC2CCCN2)cc1F (stereo in doubt; 7) |  |  |  |  | < 4.47 | < 4.47
CN[C@H](CNc1cc(F)c(S(=O)(=O)Nc2ncc(F)s2)cc1Cl)CC12CC(C1)C2 | < 4.47 | 6.92 | 10 | 2300 |  | 
